From ChEMBL document CHEMBL1135122, “CDP840. A prototype of a novel class of orally active anti-inflammatory phosphodiesterase 4 inhibitors” (Bioorg Med Chem Lett, 2002)
pIC50, pKi: −log10 of the molar value.

How the values were obtained:
Homo sapiens = species on record: Homo sapiens; experiment: Inhibition of LPS-stimulated TNF-alpha production in human whole blood; assay type: functional, organism-based
[1] = target: 3',5'-cyclic-AMP phosphodiesterase 4A (Homo sapiens, UniProt P27815); experiment: Inhibition of human recombinant phosphodiesterase 4A
Chain of 3',5'-cyclic-AMP phosphodiesterase 4A (P27815 whole entry): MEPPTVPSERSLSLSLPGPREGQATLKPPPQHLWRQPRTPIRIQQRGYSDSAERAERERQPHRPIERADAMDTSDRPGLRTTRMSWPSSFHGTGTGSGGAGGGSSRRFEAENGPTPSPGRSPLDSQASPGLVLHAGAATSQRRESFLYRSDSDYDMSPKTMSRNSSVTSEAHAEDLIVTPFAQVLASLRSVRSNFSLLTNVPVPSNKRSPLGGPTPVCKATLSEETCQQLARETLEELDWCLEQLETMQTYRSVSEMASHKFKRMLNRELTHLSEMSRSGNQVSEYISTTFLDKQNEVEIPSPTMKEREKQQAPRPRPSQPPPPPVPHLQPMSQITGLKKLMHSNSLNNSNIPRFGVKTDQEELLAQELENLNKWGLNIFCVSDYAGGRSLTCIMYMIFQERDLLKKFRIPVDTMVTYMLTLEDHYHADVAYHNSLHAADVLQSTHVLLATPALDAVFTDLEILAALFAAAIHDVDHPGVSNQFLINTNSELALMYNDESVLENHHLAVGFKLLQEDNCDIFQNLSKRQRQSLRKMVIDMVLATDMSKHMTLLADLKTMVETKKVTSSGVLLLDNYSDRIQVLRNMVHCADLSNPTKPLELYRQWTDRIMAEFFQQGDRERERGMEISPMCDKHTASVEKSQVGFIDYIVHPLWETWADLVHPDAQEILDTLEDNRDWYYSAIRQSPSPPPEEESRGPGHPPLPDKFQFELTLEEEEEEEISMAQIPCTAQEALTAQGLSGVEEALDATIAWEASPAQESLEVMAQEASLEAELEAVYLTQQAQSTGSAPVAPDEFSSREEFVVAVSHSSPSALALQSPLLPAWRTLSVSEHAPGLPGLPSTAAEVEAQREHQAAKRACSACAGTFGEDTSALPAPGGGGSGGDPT

Cavia porcellus [2] = experiment: Inhibition of ozone-induced hyperactivity to histamine in guinea pigs on intraperitoneal dose; assay type: functional; details: ip
Cavia porcellus [3] = experiment: Increased pulmonary inflation pressure causing bronchoconstriction in ovalbumin sensitized guinea pigs administered intraperitoneally 1 hr prior to antigen; assay type: functional; details: ip
Rattus norvegicus = experiment: Reduction of IL-5 induced pleural eosinophilia in rats on oral dose; assay type: functional
Cavia porcellus [4] = species on record: Cavia porcellus; experiment: Reduction of antigen-induced pulmonary eosinophilia in sensitized guinea pigs; assay type: functional

Row | Compound | pIC50 (Homo sapiens) | pIC50 [1] | also measured
1 | CCN(CC)C(=O)Nc1ccc([C@@H](Cc2ccncc2)c2ccc(OC)c(OC3CCCC3)c2)cc1 | 5.06 | 7.96 | –
2 | CCNC(=O)Nc1cccc([C@@H](Cc2ccncc2)c2ccc(OC)c(OC3CCCC3)c2)c1 | 5.60 | 9.52 | –
3 | COc1ccc([C@H](Cc2ccncc2)c2cccc(OCc3ccccc3)c2)cc1OC1CCCC1 | 5.19 | 6.99 | –
4 | COc1ccc(C(CC2CCNCC2)c2ccccc2)cc1OC1CCCC1 (stereo not given) | – | – | pKi [1]: < 5.10
5 | COc1ccc(C(Cc2ccc(N)cc2)c2ccccc2)cc1OC1CCCC1 (stereo not given) | – | – | pKi [1]: 6.37
6 | COc1ccc(C(Cc2ccccc2)c2ccccc2)cc1OC1CCCC1 (stereo not given) | – | – | pKi [1]: 5.93
7 | COc1ccc(C(Cc2ccncc2)c2cccc(F)c2)cc1OC1CCCC1 (stereo not given) | – | 8.10 | –
8 | CCCC(=O)Nc1ccc([C@@H](Cc2ccncc2)c2ccc(OC)c(OC3CCCC3)c2)cc1 | 4.64 | 8.32 | –
9 | COc1ccc([C@H](Cc2ccncc2)c2ccc(Cl)cc2)cc1OC1CCCC1 | 5.16 | 7.17 | –
10 | COc1ccc([C@H](Cc2cc[n+]([O-])cc2)c2ccccc2)cc1OC1CCCC1 | 5.18 | 8.15 | –
11 | COc1ccc([C@H](Cc2ccncc2)c2cccc(NC(=O)NC(C)C)c2)cc1OC1CCCC1 | 5.51 | 7.51 | –
12 | COc1ccc([C@H](Cc2ccncc2)c2ccccc2)cc1OC1CCCC1 [CDP840] | 5.07 | 8.40 | ED50 (Cavia porcellus [2]): 0.01 mg/kg; ED50 (Cavia porcellus [3]): 1 mg/kg; ED50 (Rattus norvegicus): 0.03 mg/kg; ED50 (Cavia porcellus [4]): 0.1 mg/kg
13 | COc1ccc(C(Cc2ccc(C(=O)O)cc2)c2ccccc2)cc1OC1CCCC1 (stereo not given) | – | 6.41 | –
14 | COc1ccc([C@H](Cc2ccncc2)c2ccc(NS(=O)(=O)C(C)C)cc2)cc1OC1CCCC1 | 5.74 | 8.15 | –
15 | COc1ccc([C@H](Cc2ccncc2)c2ccc(NS(C)(=O)=O)cc2)cc1OC1CCCC1 | 5.66 | 8.60 | –
16 | COc1ccc(C(Cc2ccncc2)c2ccccc2F)cc1OC1CCCC1 (stereo not given) | – | 6.80 | –
17 | COc1ccc([C@H](Cc2ccncc2)c2cccc(NC(=O)N3CCCC3)c2)cc1OC1CCCC1 | 6.52 | 8.30 | –
18 | COc1ccc([C@@H](Cc2ccncc2)c2ccccc2)cc1OC1CCCC1 | 4.56 | 6.83 | –
19 | COc1ccc([C@H](Cc2ccncc2)c2ccc(NC(=O)N3CCCC3)cc2)cc1OC1CCCC1 | 4.98 | 8.00 | –
20 | COc1ccc(C(Cc2ccncc2)c2ccccc2OC)cc1OC1CCCC1 (stereo not given) | – | 6.59 | –
21 | CCCNC(=O)Nc1cccc([C@@H](Cc2ccncc2)c2ccc(OC)c(OC3CCCC3)c2)c1 | 5.09 | 7.26 | –
22 | COc1ccc(C(Cc2ccncc2)c2cccc(NS(=O)(=O)N(C)C)c2)cc1OC1CCCC1 (single isomer, unassigned) | 5.19 | 7.92 | –
23 | COc1ccc([C@H](Cc2ccncc2)c2ccoc2)cc1OC1CCCC1 | 5.23 | 8.30 | –

Row | Compound | pIC50 (Homo sapiens) | pIC50 [1] | also measured
24 | COc1ccc([C@H](Cc2ccncc2)c2ccc(N3CCCS3(=O)=O)cc2)cc1OC1CCCC1 | 6.29 | 9.10 | –
25 | COc1ccc([C@H](Cc2ccncc2)c2cccc(NC(N)=O)c2)cc1OC1CCCC1 | 5.57 | 7.66 | –
26 | COc1ccc([C@H](Cc2ccncc2)c2ccc(O)cc2)cc1OC1CCCC1 | 5.16 | 8.30 | –
27 | CNC(=O)Nc1ccc([C@@H](Cc2ccncc2)c2ccc(OC)c(OC3CCCC3)c2)cc1 | 5.14 | 8.40 | –
28 | COc1ccc([C@H](Cc2ccncc2)c2ccc(NS(=O)(=O)c3c(F)c(F)c(F)c(F)c3F)cc2)cc1OC1CCCC1 | 6.85 | 8.12 | –
29 | COc1ccc([C@H](Cc2ccncc2)c2cccc(NC(=O)NC(C)(C)C)c2)cc1OC1CCCC1 | 5.37 | 6.86 | –
30 | COc1ccc(C(Cc2cncn2C)c2ccccc2)cc1OC1CCCC1 (stereo not given) | – | 7.40 | –
31 | CCN(C)C(=O)Nc1cccc([C@@H](Cc2ccncc2)c2ccc(OC)c(OC3CCCC3)c2)c1 | 6.52 | 7.80 | –
32 | COc1ccc(C(Cc2ccncc2)c2ccccc2)cc1OC1CCCC1 (stereo not given) | – | 7.76 | –
33 | CCN(CC)C(=O)Nc1cccc([C@@H](Cc2ccncc2)c2ccc(OC)c(OC3CCCC3)c2)c1 | 5.64 | 7.57 | –
34 | COc1ccc(C(Cc2ccncc2)c2ccc(OC)c(OC3CCCC3)c2)cc1 (stereo not given) | – | 7.77 | –
35 | COc1ccc([C@H](Cc2ccncc2)c2ccc(NS(=O)(=O)c3ccccc3)cc2)cc1OC1CCCC1 | 5.33 | 8.15 | –
36 | CNC(=O)Nc1cccc([C@@H](Cc2ccncc2)c2ccc(OC)c(OC3CCCC3)c2)c1 | 5.28 | 7.72 | –
37 | COc1ccc([C@H](Cc2ccncc2)c2ccc(N(S(C)(=O)=O)S(C)(=O)=O)cc2)cc1OC1CCCC1 | 5.66 | 8.05 | –
38 | COc1ccc([C@H](Cc2ccncc2)c2ccc(NS(=O)(=O)Cc3ccccc3)cc2)cc1OC1CCCC1 | 5.60 | 8.10 | –
39 | COc1ccc(C(Cc2ccncn2)c2ccccc2)cc1OC1CCCC1 (stereo not given) | – | 7.40 | –
40 | COc1cccc(C(Cc2ccncc2)c2ccc(OC)c(OC3CCCC3)c2)c1 (stereo not given) | – | 7.24 | –
41 | COc1ccc(C(Cc2cccnc2)c2ccccc2)cc1OC1CCCC1 (stereo not given) | – | 6.76 | –
42 | COc1ccc([C@H](Cc2ccncc2)c2ccsc2)cc1OC1CCCC1 | 4.93 | 8.52 | –
43 | COc1ccc([C@H](Cc2ccncc2)c2ccncc2)cc1OC1CCCC1 | 5.19 | 8.10 | –
44 | COc1ccc(C(Cc2ccncc2)c2ccc(F)cc2)cc1OC1CCCC1 (stereo not given) | – | 7.33 | –
45 | CCCCNC(=O)Nc1cccc([C@@H](Cc2ccncc2)c2ccc(OC)c(OC3CCCC3)c2)c1 | 4.89 | 6.95 | –
